Series [1] deals with T1, Human neutrophil elastase (Homo sapiens, UniProt P08246).
T1 construct: purchased Calbiochem 324681
T1 sequence (P08246 30-247 limits assumed): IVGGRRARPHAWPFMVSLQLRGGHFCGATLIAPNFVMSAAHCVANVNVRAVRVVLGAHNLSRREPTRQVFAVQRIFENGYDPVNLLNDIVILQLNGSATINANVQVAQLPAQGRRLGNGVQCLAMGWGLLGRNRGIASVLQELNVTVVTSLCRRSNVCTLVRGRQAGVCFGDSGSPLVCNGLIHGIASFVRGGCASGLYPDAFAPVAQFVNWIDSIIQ
Kind of series: Human Neutrophil Elastase Assay. The format is biochemical. The following applies: substrate MeOSuc-Ala-Ala-Pro-Val-AMC 250 μM, pH 7.5, room temperature. The source says:
Human Neutrophil Elastase Assay

Series [2] is described as follows: Metabolic stability with human liver microsomes. The format is in vitro ADME. Particulars: pooled human liver microsomes, pH 7.6; human liver microsomes 1 mg/ml, 1 μM compound, 37° C., NADPH; read-out: t1/2 INVITRO. (Liver microsomes are a subcellular fraction often used to study metabolism.)
A further series is described as follows: Aqueous solubility. The format is physicochemical. Particulars: McIlvaine buffer pH 6.8 containing 2.5% DMSO, kinetic from dmso stock, McIlvaine buffer pH 6.8, 2.5% DMSO, 24 h shaking. As for the experimental part:
Assay for Determination of Aqueous Solubility
Starting from a 10 min DMSO stock solution, aliquots are diluted with acetonitrile/water (1/1) and McIlvaine buffer pH 6.8, respectively. After 24 h of shaking, the solutions or suspensions are filtered and analyzed by LC-UV. The amount dissolved in buffer is compared to the amount dissolved in the acetonitrile/water (1/1) solution. Solubility is measured from 0.001 to 0.125 mg/ml at a DMSO concentration of 2.5%. If more than 90% of the compound is dissolved in buffer, the value is marked with “>”.

The target of the next series is T2, cytochrome P450 2C9 (Homo sapiens, UniProt P11712).
T2 construct: is assayed at 37° C. with human liver microsomes; from tissue; host or cells: human liver microsomes
Kind of series: Cytochrome P450 2C9 inhibition. Particulars: human liver microsomes, Diclofenac hydroxylation. Format: in vitro ADME. From the text: Assay for Determination of Cytochrome P450 2C9 Inhibition

In the next series the target is T3, cytochrome P450 2C19 (Homo sapiens, UniProt P33261).
T3 construct: is assayed at 37° C. with human liver microsomes; from tissue; host or cells: human liver microsomes
Kind of series: Cytochrome P450 2C19 inhibition. The format is in vitro ADME. The following applies: human liver microsomes, (S)-Mephenytoin hydroxylation. The source says: Assay for Determination of Cytochrome P450 2C19 Inhibition

In another series the target is T4, cytochrome P450 2C8 (Homo sapiens, UniProt P10632).
T4 construct: is assayed at 37° C. with human liver microsomes; from tissue; host or cells: human liver microsomes
T4 sequence (P10632 1-490): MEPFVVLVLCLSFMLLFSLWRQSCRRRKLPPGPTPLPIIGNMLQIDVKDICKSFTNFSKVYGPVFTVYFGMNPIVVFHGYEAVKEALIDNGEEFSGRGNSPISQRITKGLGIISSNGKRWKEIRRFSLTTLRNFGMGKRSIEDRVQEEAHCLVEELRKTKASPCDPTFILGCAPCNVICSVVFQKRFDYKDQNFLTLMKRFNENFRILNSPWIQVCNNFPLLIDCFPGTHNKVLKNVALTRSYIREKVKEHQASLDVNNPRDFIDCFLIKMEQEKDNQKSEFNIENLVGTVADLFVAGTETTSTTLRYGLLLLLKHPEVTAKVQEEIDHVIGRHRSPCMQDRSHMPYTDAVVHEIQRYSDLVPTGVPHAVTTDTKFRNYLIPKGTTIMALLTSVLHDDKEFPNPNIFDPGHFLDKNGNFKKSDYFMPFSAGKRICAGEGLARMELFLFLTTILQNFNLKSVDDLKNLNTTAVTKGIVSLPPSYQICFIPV
Put plainly: Cytochrome P450 2C8 inhibition. Format: in vitro ADME. Particulars: human liver microsomes, Amodiaquine deethylation. The source says:
Assay for Determination of Cytochrome P450 2C8 Inhibition

≈ marks a conversion by molar mass, not a printed value. Some results are limits rather than exact numbers.

Our source for the IC50, half-life and solubility values is patent US9440930B2, “Substituted bicyclic dihydropyrimidinones and their use as inhibitors of neutrophil elastase activity” (Boehringer Ingelheim International GmbH, priority 2014, dated 2016).

T3 sequence (P33261 whole entry): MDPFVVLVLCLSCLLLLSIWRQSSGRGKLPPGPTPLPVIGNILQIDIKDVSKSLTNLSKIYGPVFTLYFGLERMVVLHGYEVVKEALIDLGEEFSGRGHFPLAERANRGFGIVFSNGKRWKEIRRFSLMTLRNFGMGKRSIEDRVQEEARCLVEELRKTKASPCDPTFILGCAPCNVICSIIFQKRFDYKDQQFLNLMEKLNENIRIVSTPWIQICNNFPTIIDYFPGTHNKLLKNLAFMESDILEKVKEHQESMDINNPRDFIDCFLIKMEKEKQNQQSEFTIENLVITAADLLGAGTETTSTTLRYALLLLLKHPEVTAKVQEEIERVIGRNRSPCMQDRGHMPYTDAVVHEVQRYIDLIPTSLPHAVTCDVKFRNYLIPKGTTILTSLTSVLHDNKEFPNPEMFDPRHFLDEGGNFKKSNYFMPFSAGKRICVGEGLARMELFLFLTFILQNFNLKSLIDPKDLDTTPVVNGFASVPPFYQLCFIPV
T2 sequence (P11712 whole entry): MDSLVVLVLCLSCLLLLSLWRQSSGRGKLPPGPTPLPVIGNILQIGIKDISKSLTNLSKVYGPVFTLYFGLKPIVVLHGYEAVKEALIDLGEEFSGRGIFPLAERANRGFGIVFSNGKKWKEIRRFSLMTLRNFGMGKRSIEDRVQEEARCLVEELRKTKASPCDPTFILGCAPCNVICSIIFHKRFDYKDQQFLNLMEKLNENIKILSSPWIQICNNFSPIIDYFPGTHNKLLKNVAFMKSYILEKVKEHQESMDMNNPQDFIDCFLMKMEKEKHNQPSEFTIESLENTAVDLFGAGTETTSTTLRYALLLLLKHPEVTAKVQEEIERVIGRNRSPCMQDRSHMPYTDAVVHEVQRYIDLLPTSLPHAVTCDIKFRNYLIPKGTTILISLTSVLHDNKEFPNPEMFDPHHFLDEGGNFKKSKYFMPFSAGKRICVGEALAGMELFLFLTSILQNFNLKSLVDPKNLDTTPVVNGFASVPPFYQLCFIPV

Turning to `CN1C(=O)N(c2cccc(C(F)(F)F)c2)C2=C(C(=O)CCC2)[C@H]1c1ccc(C#N)cc1[S+](C)[O-]` (single isomer, unassigned) [Example 2.2A, 3-Methanesulfinyl-4-[3-methyl-2,5-dioxo-1-(3-trifluoromethyl-phenyl)-1,2,3,4,5,6,7,8-octahydro-quinazolin-4-yl]-benzonitrile], the IC50 (as a rule, the concentration that inhibits the measured activity by half) in series [1] was < 0.001 µM; against cytochrome P450 2C9, > 50 µM; at cytochrome P450 2C19, > 50 µM; against cytochrome P450 2C8, > 50 µM. Moreover, in series [2], the half-life at 1 μM is > 2.17 h. In the series “Aqueous solubility”, the solubility – broadly, how much of the substance goes into solution per volume – at 24 h was 55 µg/mL (≈ 113 µM).
